Laboratory results: US9663523B2, “BET protein-inhibiting 5-aryltriazoleazepines” (BAYER PHARMA AKTIENGESELLSCHAFT, priority 2012, dated 2017)

Columns and labels:
MOLM-13 cells = experiment: Cell proliferation (alamarBlue), MOLM-13; assay type: cell-based; conditions: Homo sapiens, acute myeloid leukaemia cell line, 96 hours incubation
Summary of the method: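 Cells seeded at 4000/well, fluorescence read after overnight at 37° C, then compound-treated for 96 h (MOLM-13, MDA-MB-231), 120 h (MOLP-8) or 168 h (LAPC-4). AlamarBlue fluorescence at start subtracted from end value and compared with buffer-treated cells.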

MDA-MB-231 cells = experiment: Cell proliferation (alamarBlue), MDA-MB-231; assay type: cell-based; conditions: Homo sapiens, mammary carcinoma cell line, 96 hours incubation
Method: The ability of the compounds according to the invention to inhibit the proliferation of various cell lines was determined.
Cell viability was determined by means of the alamarBlue® reagent (Invitrogen). The cells were sown at different densities (MOLM-13, LAPC-4, MOLP-8 and MDA-MB-231: 4000 cells/well; B16F10: 400 cells/well) in 100 μl of growth medium on 96-well microtitre plates. After overnight incubation at 37° C., the fluorescence values (CI values) were determined. The plates were then treated with various substance dilutions and incubated at 37° C. for 96 hours (MOLM-13, MDA-MB-231 and B16F10 cells), 120 hours (MOLP-8 cells) or 168 hours (LAPC-4 cells). Subsequently, the fluorescence values were determined (CO values). For the data analysis, the CI values were subtracted from the CO values and the results were compared between cells which had been treated with various dilutions of the substance or only with buffer solution.
The compounds according to the invention were tested in the cell lines in Table 2, which represent the indications specified by way of example:
The indications corresponding to the different cell lines can be found in Table 2.

B16F10 cells = experiment: Cell proliferation (alamarBlue), B16F10; assay type: cell-based; conditions: Mus musculus, B16-F10; melanoma cell line, 96 hours incubation
Summary of the method: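 Mouse B16F10 cells were plated at 400 cells/well in 100 μl of growth medium in 96-well microtitre plates and incubated overnight at 37° C. Initial fluorescence (CI) was then read with alamarBlue® reagent. Cells were exposed to serial compound dilutions for 96 hours at 37° C before final fluorescence (CO) was read. CI was subtracted from CO and compared with buffer-treated controls.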

[1] = molecular target: BRD4(1) (amino acids 44-168) (Homo sapiens (Human), UniProt O60885); experiment: BRD4 binding strength, TR-FRET (HTRF) assay of BRD4(1) / acetylated histone H4 peptide interaction; conditions: inhibition of BRD4(1)/Ac-H4 peptide interaction
LAPC-4 cells = experiment: Cell proliferation (alamarBlue), LAPC-4; assay type: cell-based; conditions: Homo sapiens, LAPC4; prostate carcinoma (androgen receptor-positive) cell line, 168 hours incubation
MOLP-8 cells = experiment: Cell proliferation (alamarBlue), MOLP-8; assay type: cell-based; conditions: Homo sapiens, multiple myeloma cell line, 120 hours incubation

Cc1nnc(CC2C=C(c3ccc(Cl)cc3)c3ccccc3-n3c(C)nnc32)o1 (stereo in doubt) [Example 38, (−)-(4R)-6-(4-chlorophenyl)-1-methyl-4-[(5-methyl-1,3,4-oxadiazol-2-yl)methyl]-4H-[1,2,4]triazolo[4,3-a][1]benzazepine]
IC50 (MOLM-13 cells): 0.12 µM | IC50 (MDA-MB-231 cells): 0.11 µM | IC50 (B16F10 cells): 0.06 µM | IC50 [1]: 0.02 µM | IC50 (LAPC-4 cells): 0.04 µM | IC50 (MOLP-8 cells): 0.045 µM
